Results taken from BindingDB's records for doi:10.1021/jm00128a028 (Roche Research Center, 1989).

Biological target: Thromboxane-A synthase (Rattus norvegicus) (UniProt P49430)
Assay: Inhibitory activity to inhibit Inophore-induced arachidonic acid metabolism (inhibition of TXB2 formation) in rat

Sequence of Thromboxane-A synthase (Rattus norvegicus) (P49430 whole entry, looked up): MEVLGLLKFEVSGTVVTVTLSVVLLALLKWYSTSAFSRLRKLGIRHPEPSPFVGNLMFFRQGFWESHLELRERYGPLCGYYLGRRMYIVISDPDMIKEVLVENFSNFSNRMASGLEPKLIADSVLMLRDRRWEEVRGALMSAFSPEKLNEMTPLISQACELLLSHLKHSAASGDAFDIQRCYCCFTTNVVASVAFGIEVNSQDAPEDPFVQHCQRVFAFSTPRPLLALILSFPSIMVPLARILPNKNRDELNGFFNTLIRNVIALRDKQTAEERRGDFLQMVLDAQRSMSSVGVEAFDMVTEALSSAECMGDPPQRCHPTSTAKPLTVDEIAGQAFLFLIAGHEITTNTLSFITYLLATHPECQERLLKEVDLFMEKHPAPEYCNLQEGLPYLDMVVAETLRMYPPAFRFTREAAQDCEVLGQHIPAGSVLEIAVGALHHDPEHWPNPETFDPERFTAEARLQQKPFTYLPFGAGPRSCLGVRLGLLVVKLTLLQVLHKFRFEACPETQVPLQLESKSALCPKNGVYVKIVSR

Row | SMILES | IC50
1 | CC(C)c1ccc2c(c1)c(SC(C)(C)C)c(CC(C)(C)C(=O)O)n2Cc1ccc(Cl)cc1 | 2000 nM
2 | CCCc1c(OCCCCCOc2cc3c(cc2C(C)=O)CCC(C(=O)O)O3)ccc(C(C)=O)c1O (stereo not drawn) [Ro-23-3544] | 6000 nM
3 | COc1ccc2c(c1)c(CC(=O)O)c(C)n2C(=O)c1ccc(Cl)cc1 [indometacin] | 100 nM
